The values below come from US20080318943A1, “Compounds and Uses Thereof - 848” (ASTRAZENECA AB, priority 2007, published 2008).

Structures are written as SMILES.

For assay [1], the target named is T1, GABAA2 receptors (α2, β3, γ2 receptor subunits transfected into Sf9 cells) (Homo sapiens, UniProt P18507+P47869).
T1 construct: host or cells: Sf9 cells (membranes)
Kind of assay: GABAA2 Binding Method ([3H]-Flunitrazepam displacement). As to conditions: [3H]-Flunitrazepam ~2 nM, α2β3γ2 Sf9 membranes, 1 hr at 4° C. In a few lines: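 Membranes from Sf9 cells expressing α2β3γ2 GABAA receptors incubated with ~2 nM (final) [3H]-flunitrazepam and test compound 1 h at 4 °C, then filtered on GF/B plates with cold-buffer washes. Flumazenil-defined controls; percent of control, IC50 and Ki calculated.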

The next assay addresses T2, GABAA receptor α1β2γ2 (Homo sapiens, UniProt P14867+P18507).
T2 construct: expressed in transfected cells; host or cells: Xenopus laevis oocytes injected with cRNA
The experiment in a line: Two-electrode voltage-clamp potentiation of GABA EC10 current in Xenopus oocytes, GABAA1. The assay is classed as cell-based. As to conditions: percentage potentiation of GABA EC10 current divided by that of diazepam. The method, boiled down: (§1)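 Human GABAA receptors expressed in Xenopus oocytes by cRNA injection (α:β:γ molar ratio ~1:1:10 for α1β2γ2, 1:1:1 for α2β3γ2), recorded 2-10 days later by two-electrode voltage clamp at −60 mV in ND-96, pH 7.5. Modulator preapplied 30 s before GABA at per-oocyte EC10. Peak-current percent potentiation over GABA alone, normalised to diazepam.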

Another assay has as its target T3, GABAA receptor α2β3γ2 (Homo sapiens, UniProt P18507+P47869).
T3 construct: expressed in transfected cells; host or cells: Xenopus laevis oocytes injected with cRNA
The experiment in a line: Two-electrode voltage-clamp potentiation of GABA EC10 current in Xenopus oocytes, GABAA2. Type of assay: cell-based. As to conditions: percentage potentiation of GABA EC10 current divided by that of diazepam. The method, boiled down: as §1

T2 sequence (P14867 28-456): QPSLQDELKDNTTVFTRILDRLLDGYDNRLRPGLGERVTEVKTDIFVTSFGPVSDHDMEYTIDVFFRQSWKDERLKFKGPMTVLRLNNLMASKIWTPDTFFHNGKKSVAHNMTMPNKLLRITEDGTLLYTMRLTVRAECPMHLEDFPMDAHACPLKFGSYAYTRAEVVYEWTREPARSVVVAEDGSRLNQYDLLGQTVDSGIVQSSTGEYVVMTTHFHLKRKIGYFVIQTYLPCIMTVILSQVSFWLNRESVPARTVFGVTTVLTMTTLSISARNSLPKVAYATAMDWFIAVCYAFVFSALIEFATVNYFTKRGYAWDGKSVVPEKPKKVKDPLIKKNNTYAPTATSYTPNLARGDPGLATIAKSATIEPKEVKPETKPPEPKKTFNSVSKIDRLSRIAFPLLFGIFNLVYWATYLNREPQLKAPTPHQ
T2 sequence (P47870 25-512 partner limits assumed): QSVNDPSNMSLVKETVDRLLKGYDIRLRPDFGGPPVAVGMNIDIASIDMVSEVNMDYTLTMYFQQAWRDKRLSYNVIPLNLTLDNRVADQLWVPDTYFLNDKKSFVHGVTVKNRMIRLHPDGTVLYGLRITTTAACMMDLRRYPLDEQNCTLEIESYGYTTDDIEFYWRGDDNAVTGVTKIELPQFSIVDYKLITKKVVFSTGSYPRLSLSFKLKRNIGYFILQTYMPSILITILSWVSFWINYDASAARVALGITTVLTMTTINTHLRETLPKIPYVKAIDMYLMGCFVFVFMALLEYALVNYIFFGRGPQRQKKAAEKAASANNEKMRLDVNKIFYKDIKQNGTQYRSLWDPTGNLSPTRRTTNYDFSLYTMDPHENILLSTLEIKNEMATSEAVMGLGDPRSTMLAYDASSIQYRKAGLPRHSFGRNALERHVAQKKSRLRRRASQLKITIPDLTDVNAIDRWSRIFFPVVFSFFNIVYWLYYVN
T2 sequence (P18507 40-475): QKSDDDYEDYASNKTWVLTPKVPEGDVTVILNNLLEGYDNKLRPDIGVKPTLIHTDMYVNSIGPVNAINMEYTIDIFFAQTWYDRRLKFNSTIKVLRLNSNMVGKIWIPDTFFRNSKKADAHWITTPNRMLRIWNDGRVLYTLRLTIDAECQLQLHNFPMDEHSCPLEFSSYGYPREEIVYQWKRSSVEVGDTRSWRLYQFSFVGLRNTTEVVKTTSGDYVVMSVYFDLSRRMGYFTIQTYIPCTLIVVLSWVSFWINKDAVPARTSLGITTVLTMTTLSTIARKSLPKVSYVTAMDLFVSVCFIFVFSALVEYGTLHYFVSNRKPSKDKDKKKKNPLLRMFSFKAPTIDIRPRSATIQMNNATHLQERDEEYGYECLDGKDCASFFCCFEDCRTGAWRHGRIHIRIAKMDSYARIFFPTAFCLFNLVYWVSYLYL
T1 sequence (P47869 29-451): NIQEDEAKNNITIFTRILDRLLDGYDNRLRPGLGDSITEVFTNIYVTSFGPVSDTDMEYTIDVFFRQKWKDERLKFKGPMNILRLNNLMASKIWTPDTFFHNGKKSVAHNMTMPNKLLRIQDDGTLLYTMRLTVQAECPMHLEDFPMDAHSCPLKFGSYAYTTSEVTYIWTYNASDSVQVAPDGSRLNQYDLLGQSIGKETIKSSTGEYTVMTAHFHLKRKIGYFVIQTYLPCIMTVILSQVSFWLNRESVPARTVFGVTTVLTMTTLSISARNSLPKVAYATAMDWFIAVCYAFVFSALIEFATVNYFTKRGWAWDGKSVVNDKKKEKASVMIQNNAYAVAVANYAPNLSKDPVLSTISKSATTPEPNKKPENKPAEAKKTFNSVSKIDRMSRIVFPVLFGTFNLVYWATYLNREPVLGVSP
T1 sequence (P28472 26-473 partner): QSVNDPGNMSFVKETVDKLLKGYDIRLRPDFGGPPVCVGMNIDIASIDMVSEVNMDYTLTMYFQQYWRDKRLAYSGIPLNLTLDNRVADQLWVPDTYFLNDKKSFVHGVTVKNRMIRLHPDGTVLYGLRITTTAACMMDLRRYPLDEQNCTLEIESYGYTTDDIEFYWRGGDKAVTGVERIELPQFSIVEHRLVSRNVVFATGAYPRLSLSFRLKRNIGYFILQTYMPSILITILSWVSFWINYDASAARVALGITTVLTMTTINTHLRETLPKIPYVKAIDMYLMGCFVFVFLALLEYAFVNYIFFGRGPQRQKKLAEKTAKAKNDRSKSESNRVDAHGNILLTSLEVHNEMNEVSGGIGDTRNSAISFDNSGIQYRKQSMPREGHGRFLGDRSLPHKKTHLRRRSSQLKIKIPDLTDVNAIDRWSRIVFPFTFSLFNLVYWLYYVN
T1 sequence (P18507 40-475): as the sequence (P18507 40-475) above
T3 sequence (P47869 29-451): as the sequence (P47869 29-451) above
T3 sequence (P28472 26-473 partner): as the sequence (P28472 26-473 partner) above
T3 sequence (P18507 40-475): as the sequence (P18507 40-475) above

Consider `COc1ccc(F)c(-c2cccc3c(N)c4c(nc23)CN(C2CCC2)C4=O)c1` [9-Amino-2-cyclobutyl-5-(2-fluoro-5-methoxyphenyl)-2,3-dihydropyrrolo[3,4-b]quinolin-1-one], for which, in assay [1], affinity was put at a Ki of 1.34 nM. On GABAA receptor α1β2γ2, the “Relative Potentiation for GABAA1” value is listed as 0.1. Moreover, the “Relative Potentiation for GABAA2” value at GABAA receptor α2β3γ2 was 0.29.

In assay [1], `CCN1Cc2nc3c(-c4ccc(OC)cc4F)c(F)ccc3c(N)c2C1=O` [9-amino-2-ethyl-6-fluoro-5-(2-fluoro-4-methoxyphenyl)-2,3-dihydro-1H-pyrrolo[3,4-b]quinolin-1-one] showed an inhibition constant (Ki) of 1.49 nM. Besides, on GABAA receptor α1β2γ2, the “Relative Potentiation for GABAA1” value is −0.04. The “Relative Potentiation for GABAA2” value on GABAA receptor α2β3γ2 was found to be 0.05.

In turn, `COc1cccc(Cl)c1-c1cccc2c(N)c3c(nc12)CN(C1CCC1)C3=O` [9-amino-5-(2-chloro-6-methoxyphenyl)-2-cyclobutyl-2,3-dihydro-1H-pyrrolo[3,4-b]quinolin-1-one] came in with a Ki in assay [1] of 2.22 nM. Moreover, the “Relative Potentiation for GABAA1” value at GABAA receptor α1β2γ2 is −0.15. Moreover, at GABAA receptor α2β3γ2, the “Relative Potentiation for GABAA2” value was determined as 0.051.

Take `Nc1c2c(nc3c(-c4ccccn4)cccc13)CN(C1CCC1)C2=O` [9-Amino-2-cyclobutyl-5-pyridin-2-yl-2,3-dihydropyrrolo[3,4-b]quinolin-1-one]: the affinity in assay [1], expressed as Ki, was 4.66 nM. On GABAA receptor α1β2γ2, the “Relative Potentiation for GABAA1” value is reported as 0.061. Further, the “Relative Potentiation for GABAA2” value on GABAA receptor α2β3γ2 stood at 0.12.

`CCN1Cc2nc3c(-c4c(F)cccc4OC)c(F)ccc3c(N)c2C1=O` [9-Amino-2-ethyl-6-fluoro-5-(2-fluoro-6-methoxyphenyl)-2,3-dihydropyrrolo[3,4-b]quinolin-1-one] had a Ki in assay [1] of 3.47 nM. The “Relative Potentiation for GABAA1” value on GABAA receptor α1β2γ2 is listed as −0.12. The “Relative Potentiation for GABAA2” value at GABAA receptor α2β3γ2 was found to be 0.093.

Take `COc1ccc(CN2Cc3nc4c(-c5cnccc5OC)cccc4c(N)c3C2=O)cc1OC` [9-amino-2-(3,4-dimethoxybenzyl)-5-(4-methoxypyridin-3-yl)-2,3-dihydro-1H-pyrrolo[3,4-b]quinolin-1-one]: the Ki in assay [1] turned out to be 1.5 nM. Further, at GABAA receptor α1β2γ2, the “Relative Potentiation for GABAA1” value is listed as 0.23. For the same compound, at GABAA receptor α2β3γ2, the “Relative Potentiation for GABAA2” value was 0.37.

For `CCCN1Cc2nc3c(-c4ccc(OC)nc4OC)cccc3c(N)c2C1=O` [Example 9, 9-Amino-5-(2,6-dimethoxypyridin-3-yl)-2-propyl-2,3-dihydropyrrolo[3,4-b]quinolin-1-one], affinity in assay [1] was put at a Ki of 28.1 nM. Further, the “Relative Potentiation for GABAA1” value at GABAA receptor α1β2γ2 came out at 0.068. In addition, the “Relative Potentiation for GABAA2” value at GABAA receptor α2β3γ2 was 0.31.

With `COc1ccc(CN2Cc3nc4c(-c5c(F)cccc5OC)cccc4c(N)c3C2=O)cc1Cl` [9-Amino-2-(3-chloro-4-methoxybenzyl)-5-(2-fluoro-6-methoxyphenyl)-2,3-dihydropyrrolo[3,4-b]quinolin-1-one], the Ki in assay [1] was found to be 10.3 nM. Further, the “Relative Potentiation for GABAA1” value on GABAA receptor α1β2γ2 stood at 0.088. In addition, at GABAA receptor α2β3γ2, the “Relative Potentiation for GABAA2” value amounted to 0.15.

`CCCN1Cc2nc3c(-c4cc(C)nn4C)cccc3c(N)c2C1=O` [9-amino-5-(1,3-dimethyl-1H-pyrazol-5-yl)-2-propyl-2,3-dihydro-1H-pyrrolo[3,4-b]quinolin-1-one] yielded a Ki in assay [1] of 21.5 nM. In addition, on GABAA receptor α1β2γ2, the “Relative Potentiation for GABAA1” value is given as 0.49. In addition, on GABAA receptor α2β3γ2, the “Relative Potentiation for GABAA2” value is 0.57.

As for `CCN1Cc2nc3c(-c4ccccc4F)c(F)ccc3c(N)c2C1=O` [9-amino-2-ethyl-6-fluoro-5-(2-fluorophenyl)-2,3-dihydro-1H-pyrrolo[3,4-b]quinolin-1-one], the Ki in assay [1] was 1.51 nM. Moreover, the “Relative Potentiation for GABAA1” value on GABAA receptor α1β2γ2 is −0.04. The “Relative Potentiation for GABAA2” value on GABAA receptor α2β3γ2 is 0.038.

As to `COc1ccc(CN2Cc3nc4c(-c5cccnc5F)cccc4c(N)c3C2=O)cc1` [9-amino-5-(2-fluoropyridin-3-yl)-2-(4-methoxybenzyl)-2,3-dihydro-1H-pyrrolo[3,4-b]quinolin-1-one], in assay [1], the Ki turned out to be 6.82 nM. Moreover, on GABAA receptor α1β2γ2, the “Relative Potentiation for GABAA1” value is reported as 0.18. Also, on GABAA receptor α2β3γ2, the “Relative Potentiation for GABAA2” value came to 0.32.

As for `Nc1c2c(nc3c(-c4cc(Cl)ccc4Cl)cccc13)CN(C1CC1)C2=O` [Example 59, 9-Amino-2-cyclopropyl-5-(2,5-dichlorophenyl)-2,3-dihydropyrrolo[3,4-b]quinolin-1-one], the Ki in assay [1] was found to be 11.4 nM. The “Relative Potentiation for GABAA1” value on GABAA receptor α1β2γ2 came out at 0.094. The “Relative Potentiation for GABAA2” value at GABAA receptor α2β3γ2 is 0.25.

For `C=Cc1ccccc1-c1c(F)ccc2c(N)c3c(nc12)CN(C1CCC1)C3=O` [9-Amino-2-cyclobutyl-6-fluoro-5-(2-vinylphenyl)-2,3-dihydropyrrolo[3,4-b]quinolin-1-one], affinity in assay [1] was put at a Ki of 1.68 nM. Besides, the “Relative Potentiation for GABAA1” value at GABAA receptor α1β2γ2 is 0.11. For the same compound, the “Relative Potentiation for GABAA2” value at GABAA receptor α2β3γ2 was 0.11.

As to `COc1cnccc1-c1cccc2c(N)c3c(nc12)CN(C1CCC1)C3=O` [9-Amino-2-cyclobutyl-5-(3-methoxypyridin-4-yl)-2,3-dihydropyrrolo[3,4-b]quinolin-1-one], affinity in assay [1] was put at a Ki of 0.64 nM. For the same compound, the “Relative Potentiation for GABAA1” value on GABAA receptor α1β2γ2 was determined as 0.1. The “Relative Potentiation for GABAA2” value on GABAA receptor α2β3γ2 is 0.32.

The compound `COc1cccc(Cl)c1-c1c(F)ccc2c(N)c3c(nc12)CN(C1CC1)C3=O` [9-amino-5-(2-chloro-6-methoxyphenyl)-2-cyclopropyl-6-fluoro-2,3-dihydro-1H-pyrrolo[3,4-b]quinolin-1-one] registered a Ki in assay [1] of 4.85 nM. Moreover, the “Relative Potentiation for GABAA1” value on GABAA receptor α1β2γ2 is on record as −0.15. Besides, the “Relative Potentiation for GABAA2” value on GABAA receptor α2β3γ2 is 0.013.

In the case of `COc1ccc(CN2Cc3nc4c(-c5ccc(Cl)nc5)cccc4c(N)c3C2=O)cc1OC` [Example 8, 9-Amino-5-(6-chloropyridin-3-yl)-2-(3,4-dimethoxybenzyl)-2,3-dihydropyrrolo[3,4-b]quinolin-1-one], the Ki in assay [1] came to 45.9 nM. Also, at GABAA receptor α1β2γ2, the “Relative Potentiation for GABAA1” value was determined as 0.013. Moreover, on GABAA receptor α2β3γ2, the “Relative Potentiation for GABAA2” value was determined as 0.07.

In assay [1], `CCCN1Cc2nc3c(-c4cc(Cl)ccc4OC)cccc3c(N)c2C1=O` [9-amino-5-(5-chloro-2-methoxyphenyl)-2-propyl-2,3-dihydro-1H-pyrrolo[3,4-b]quinolin-1-one] displayed a Ki of 39.6 nM. In addition, the “Relative Potentiation for GABAA1” value at GABAA receptor α1β2γ2 was 0.36. The “Relative Potentiation for GABAA2” value on GABAA receptor α2β3γ2 was found to be 0.54.

For `CCN1Cc2nc3c(-c4c(F)cccc4OC)cccc3c(N)c2C1=O` [Example 17, 9-Amino-2-ethyl-5-(2-fluoro-6-methoxyphenyl)-2,3-dihydropyrrolo[3,4-b]quinolin-1-one], the Ki in assay [1] was 4.36 nM. Moreover, the “Relative Potentiation for GABAA1” value on GABAA receptor α1β2γ2 is −0.11. The “Relative Potentiation for GABAA2” value on GABAA receptor α2β3γ2 was determined as 0.15.

On to `COc1cccc(-c2c(F)ccc3c(N)c4c(nc23)CN(C2CCC2)C4=O)c1F` [9-Amino-2-cyclobutyl-6-fluoro-5-(2-fluoro-3-methoxyphenyl)-2,3-dihydropyrrolo[3,4-b]quinolin-1-one], for which the Ki in assay [1] worked out at 0.122 nM. Besides, the “Relative Potentiation for GABAA1” value at GABAA receptor α1β2γ2 was found to be 0.028. In addition, the “Relative Potentiation for GABAA2” value on GABAA receptor α2β3γ2 stood at 0.18.

Regarding `CCCN1Cc2nc3c(-c4ccc(OC)nc4OC)c(F)ccc3c(N)c2C1=O` [Example 24, 9-Amino-5-(2,6-dimethoxypyridin-3-yl)-6-fluoro-2-propyl-2,3-dihydropyrrolo[3,4-b]quinolin-1-one], in assay [1], the affinity corresponds to a Ki of 2.94 nM. The “Relative Potentiation for GABAA1” value at GABAA receptor α1β2γ2 is 0.15. On GABAA receptor α2β3γ2, the “Relative Potentiation for GABAA2” value is reported as 0.35.

Consider `CCCN1Cc2nc3c(-c4cc(C)cc(C)c4)cccc3c(N)c2C1=O` [Example 7, 9-Amino-5-(3,5-dimethylphenyl)-2-propyl-2,3-dihydropyrrolo[3,4-b]quinolin-1-one], for which the affinity in assay [1] corresponds to a Ki of 94.3 nM. Moreover, the “Relative Potentiation for GABAA1” value on GABAA receptor α1β2γ2 turned out to be 0.16. At GABAA receptor α2β3γ2, the “Relative Potentiation for GABAA2” value is on record as 0.27.

For the compound `N#Cc1ccccc1-c1cccc2c(N)c3c(nc12)CN(C1CCC1)C3=O` [Example 76, 2-(9-Amino-2-cyclobutyl-1-oxo-2,3-dihydro-1H-pyrrolo[3,4-b]quinolin-5-yl)benzonitrile], in assay [1], the affinity corresponds to a Ki of 0.973 nM. The “Relative Potentiation for GABAA1” value at GABAA receptor α1β2γ2 was −0.036. For the same compound, the “Relative Potentiation for GABAA2” value on GABAA receptor α2β3γ2 amounted to 0.12.

In turn, `COc1ccc(-c2cccc3c(N)c4c(nc23)CN(C2CCC2)C4=O)c(OC)c1` [Example 53, 9-Amino-2-cyclobutyl-5-(2,4-dimethoxyphenyl)-2,3-dihydropyrrolo[3,4-b]quinolin-1-one] came in with a Ki in assay [1] of 2.13 nM. Further, on GABAA receptor α1β2γ2, the “Relative Potentiation for GABAA1” value worked out at 0.1. Also, on GABAA receptor α2β3γ2, the “Relative Potentiation for GABAA2” value was 0.24.

In assay [1], `CCCN1Cc2nc3c(-c4ccc(F)nc4C)cccc3c(N)c2C1=O` [9-amino-5-(6-fluoro-2-methylpyridin-3-yl)-2-propyl-2,3-dihydro-1H-pyrrolo[3,4-b]quinolin-1-one] came in with a Ki of 22.3 nM. Also, at GABAA receptor α1β2γ2, the “Relative Potentiation for GABAA1” value came out at 1.7. For the same compound, on GABAA receptor α2β3γ2, the “Relative Potentiation for GABAA2” value is reported as 0.48.

Turning to `Cc1cccc(-c2cccc3c(N)c4c(nc23)C(O)N(C2CCC2)C4=O)n1` (stereo not drawn) [9-Amino-2-cyclobutyl-3-hydroxy-5-(6-methylpyridin-2-yl)-2,3-dihydropyrrolo[3,4-b]quinolin-1-one], the Ki in assay [1] is 7.62 nM. For the same compound, the “Relative Potentiation for GABAA1” value at GABAA receptor α1β2γ2 was −0.052. Further, on GABAA receptor α2β3γ2, the “Relative Potentiation for GABAA2” value turned out to be 0.1.

In turn, `CCN1Cc2nc3c(-c4cccc(F)c4OC)cccc3c(N)c2C1=O` [9-amino-2-ethyl-5-(3-fluoro-2-methoxyphenyl)-2,3-dihydro-1H-pyrrolo[3,4-b]quinolin-1-one] showed a Ki in assay [1] of 22.6 nM. Moreover, the “Relative Potentiation for GABAA1” value on GABAA receptor α1β2γ2 came out at 0.052. The “Relative Potentiation for GABAA2” value on GABAA receptor α2β3γ2 was 0.068.
